Measured values reported in US20130053337A1, “GUANIDINYLATED AMINOGLYCOSIDE-LIPID CONJUGATES” (UNIVERSITY OF MANITOBA, priority 2010, published 2013).
Converted amounts (≈) assume the structure as drawn. Read-outs that look alike come from different tables or passages of the source.

Columns and labels:
[1] = system: S. aureus ATCC 29213; assay: MIC, broth macrodilution (CLSI); assay type: cell-based, Staphylococcus aureus; conditions: S. aureus ATCC29213
Method: (§1) All experiments were performed in duplicate.
(§2) Bacterial isolates studied included both reference strains obtained from the American Type Culture Collection (ATCC) as well as clinical strains obtained from the CAN-ICU study which was a national surveillance study assessing the prevalence of antimicrobial resistant pathogens in Canadian intensive care units (Zhanel et al., 2008). Isolates were kept frozen in skim milk at −80° C. until minimum inhibitory concentration (MIC) testing was carried out. Following two subcultures from frozen stock, the in vitro activities of peptides were determined by macrobroth dilution in accordance with the Clinical and Laboratory Standards Institute (CLSI) 2006 guidelines (Zhanel et al., 2008). Stock solutions of peptides were prepared and dilutions made as described by CLSI. Test tubes contained doubling antimicrobial dilutions of cation adjusted Mueller-Hinton broth and inoculated to achieve a final concentration of approximately 5×10^5 cfu/ml then incubated in ambient air for 24 hours prior to reading. Colony counts were performed periodically to confirm inocula. Quality control was regularly performed using ATCC QC organisms.

[2] = system: MRSE CAN-ICU 61589; assay: MIC, broth macrodilution (CLSI); assay type: cell-based, methicillin-resistant Staphylococcus epidermidis
Method: as §1, §2

[3] = system: P. aeruginosa (gentamicin-resistant) CAN-ICU 62308; assay: MIC, broth macrodilution (CLSI); assay type: cell-based; conditions: P. aeruginosa CAN-ICU 62308
Method: as §1, §2

[4] = system: E. coli (gentamicin-resistant) CAN-ICU 61714; assay: MIC, broth macrodilution (CLSI); assay type: cell-based; conditions: E. coli CAN-ICU 61714
Method: as §1, §2

[5] = system: E. coli ATCC 25922; assay: MIC, broth macrodilution (CLSI); assay type: cell-based; conditions: E. coli ATCC25922
Method: as §1, §2

[6] = system: P. aeruginosa ATCC 27853; assay: MIC, broth macrodilution (CLSI); assay type: cell-based; conditions: P. aeruginosa ATCC27853
Method: as §1, §2

[7] = system: E. coli (amikacin MIC 32 mg/L) CAN-ICU 63074; assay: MIC, broth macrodilution (CLSI); assay type: cell-based; conditions: E. coli CAN-ICU 63074
Method: as §1, §2

[8] = system: MRSA ATCC 33592; assay: MIC, broth macrodilution (CLSI); assay type: cell-based, methicillin-resistant Staphylococcus aureus; conditions: MRSA ATCC33592
Method: as §1, §2

[9] = system: S. pneumoniae ATCC 49619; assay: MIC, broth macrodilution (CLSI), broth with 5% laked horse blood; assay type: cell-based, Streptococcus pneumoniae; conditions: S. pneumoniae ATCC49619
Method: as §1, §2

[10] = system: S. epidermidis ATCC 14990; assay: MIC, broth macrodilution (CLSI); assay type: cell-based, Staphylococcus epidermidis; conditions: S. epidermidis ATCC14990
Method: as §1, §2

[11] = system: sheep red blood cell (erythrocytes); assay: Hemolytic assay (in vitro toxicity)
Method: Antibacterial activity against Gram-positive and Gram-negative microorganisms was tested via broth macrodilution tests using CLSI methodology (Zhanel et al., 2008). Stock solutions of cationic lipids in water were brought to a concentration of 512 mg/L. Organisms were subcultured and isolated on blood agar, suspended in 3 mL of Mueller-Hinton broth at the turbidity of a […], and diluted to approximately 10^5 cfu/mL before introduction into tubes containing serially diluted lipopeptide antibiotic in Mueller-Hinton broth. Activity testing against S. pneumoniae used broth supplemented with laked horse blood to give 5% horse blood in experimental tubes. Turbidity of lipopeptide solution in broth required creation of control tubes lacking organisms serving as turbidity controls. All tubes were incubated overnight for 16-20 h at 37° C. […] All experiments were performed in duplicate. In-vitro toxicity was determined using a sheep red blood cell hemolytic assay as previously described (Dathe et al., 1996).
In vitro toxicity was determined using a sheep red blood cell (erythrocytes) hemolytic assay (Dathe et al., 1996). […] Erythrocytes were washed and resuspended in Tris buffered saline. The cell suspension was combined with varying concentrations (low to very high) of test and control antimicrobials (e.g., aminoglycosides and APTCs). The samples were centrifuged and the absorbance of the supernatants measured at 540 nm. Tris buffered saline and Triton X were used as negative and positive controls, respectively. The toxicity was assessed by percent hemolysis.

[12] = system: E. faecium ATCC 27270; assay: MIC, broth macrodilution (CLSI); assay type: cell-based, Enterococcus faecium; conditions: E. facium ATCC27270
Method: as §1, §2

[13] = system: E. faecalis ATCC 29212; assay: MIC, broth macrodilution (CLSI); assay type: cell-based, Enterococcus faecalis; conditions: E. faecalis ATCC29212
Method: as §1, §2

[14] = 100 mg/L, sheep erythrocytes, percent hemolysis

Compound | MIC [1] [µg/mL] | MIC [2] [µg/mL] | MIC [3] [µg/mL] | MIC [4] [µg/mL] | MIC [5] [µg/mL] | MIC [6] [µg/mL] | MIC [7] [µg/mL] | MIC [8] [µg/mL] | MIC [9] [µg/mL] | MIC [10] [µg/mL] | hemolytic activity at 100 mg/L [11] [%] | MIC [12] [µg/mL] | MIC [13] [µg/mL] | hemolytic activity at 100 mg/L [11, 14] [%] | hemolytic activity compared to polyamine analogs 3 and 15 [11]
CCCCCCCCCCCC(=O)NC[C@H]1O[C@@H](O[C@@H]2[C@@H](O)[C@H](N)C[C@H](N)[C@H]2O[C@H]2O[C@H](CN)[C@@H](O)[C@H](O)[C@H]2N)[C@H](O)[C@@H]1O[C@H]1O[C@@H](CN)[C@@H](O)[C@H](O)[C@H]1N.O=C(O)C(F)(F)F.O=C(O)C(F)(F)F.O=C(O)C(F)(F)F.O=C(O)C(F)(F)F.O=C(O)C(F)(F)F.O=C(O)C(F)(F)F [Compound 2] | 32 | 8 | 256 | 64 | 64 | 256 | 128 | >256 | 128 | 4 | – | – | – | – | –
CCCCCCCCCCCCCCCC(=O)NC[C@H]1O[C@@H](O[C@@H]2[C@@H](O)[C@H](N)C[C@H](N)[C@H]2O[C@H]2O[C@H](CN)[C@@H](O)[C@H](O)[C@H]2N)[C@H](O)[C@@H]1O[C@H]1O[C@@H](CN)[C@@H](O)[C@H](O)[C@H]1N.O=C(O)C(F)(F)F.O=C(O)C(F)(F)F.O=C(O)C(F)(F)F.O=C(O)C(F)(F)F.O=C(O)C(F)(F)F.O=C(O)C(F)(F)F [Compound 3] | 4 | 2 | 128 | 64 | 32 | 128 | – | 8 | 64 | 2 | 56 | – | – | – | –
CCCCCCCCCCCCCCCCCCCC(=O)NC[C@H]1O[C@@H](O[C@@H]2[C@@H](O)[C@H](N)C[C@H](N)[C@H]2O[C@H]2O[C@H](CN)[C@@H](O)[C@H](O)[C@H]2N)[C@H](O)[C@@H]1O[C@H]1O[C@@H](CN)[C@@H](O)[C@H](O)[C@H]1N.O=C(O)C(F)(F)F.O=C(O)C(F)(F)F.O=C(O)C(F)(F)F.O=C(O)C(F)(F)F.O=C(O)C(F)(F)F.O=C(O)C(F)(F)F [Compound 4] | 8 | 4 | 64 | 128 | 128 | 128 | 64 | 8 | 64 | 4 | 82 | – | – | – | –
CCCCC/C=C\C/C=C\CCCCCCCC(=O)NC[C@H]1O[C@@H](O[C@@H]2[C@@H](O)[C@H](N)C[C@H](N)[C@H]2O[C@H]2O[C@H](CN)[C@@H](O)[C@H](O)[C@H]2N)[C@H](O)[C@@H]1O[C@H]1O[C@@H](CN)[C@@H](O)[C@H](O)[C@H]1N.O=C(O)C(F)(F)F.O=C(O)C(F)(F)F.O=C(O)C(F)(F)F.O=C(O)C(F)(F)F.O=C(O)C(F)(F)F.O=C(O)C(F)(F)F [Compound 5] | 16 | 4 | 128 | 64 | 128 | 256 | 128 | 32 | 128 | 4 | – | – | – | – | –
NC[C@@H]1O[C@H](O[C@H]2[C@@H](O)[C@H](O[C@@H]3[C@@H](O)[C@H](N)C[C@H](N)[C@H]3O[C@H]3O[C@H](CN)[C@@H](O)[C@H](O)[C@H]3N)O[C@@H]2CNC(=O)CCCc2ccc3ccc4cccc5ccc2c3c45)[C@H](N)[C@@H](O)[C@@H]1O.O=C(O)C(F)(F)F.O=C(O)C(F)(F)F.O=C(O)C(F)(F)F.O=C(O)C(F)(F)F.O=C(O)C(F)(F)F.O=C(O)C(F)(F)F [Compound 6] | 16 | 64 | 256 | 64 | 32 | >512 | 64 | 256 | >512 | 2 | – | – | – | – | –
C[C@H](CCC(=O)NC[C@H]1O[C@@H](O[C@@H]2[C@@H](O)[C@H](N)C[C@H](N)[C@H]2O[C@H]2O[C@H](CN)[C@@H](O)[C@H](O)[C@H]2N)[C@H](O)[C@@H]1O[C@H]1O[C@@H](CN)[C@@H](O)[C@H](O)[C@H]1N)[C@H]1CC[C@H]2[C@@H]3[C@H](O)C[C@@H]4C[C@H](O)CC[C@]4(C)[C@H]3C[C@H](O)[C@]12C.O=C(O)C(F)(F)F.O=C(O)C(F)(F)F.O=C(O)C(F)(F)F.O=C(O)C(F)(F)F.O=C(O)C(F)(F)F.O=C(O)C(F)(F)F [Compound 7] | 16 | 16 | 128 | 64 | 32 | >256 | 64 | 128 | >256 | 8 | – | – | – | – | –
CCCCCC(=O)NCC1OC(OC2C(O)C(NC(=N)N)CC(NC(=N)N)C2OC2OC(CNC(=N)N)C(O)C(O)C2NC(=N)N)C(O)C1OC1OC(CNC(=N)N)C(O)C(O)C1NC(=N)N.O=C(O)C(F)(F)F.O=C(O)C(F)(F)F.O=C(O)C(F)(F)F.O=C(O)C(F)(F)F.O=C(O)C(F)(F)F.O=C(O)C(F)(F)F (centres unmarked) [Compound 8, 1,3,2′,6′,2′″,6′″-Hexaammonium-guanidinyl-5″-deoxy-5″-N-(hexanoyl)-neomycin hexakis(trifluoroacetate)] | 128 | 64 | – | – | 128 | – | – | – | >128 | 64 | – | 256 | – | – | –
CCCCCCCCCCCC(=O)NCC1OC(OC2C(O)C(NC(=N)N)CC(NC(=N)N)C2OC2OC(CNC(=N)N)C(O)C(O)C2NC(=N)N)C(O)C1OC1OC(CNC(=N)N)C(O)C(O)C1NC(=N)N.O=C(O)C(F)(F)F.O=C(O)C(F)(F)F.O=C(O)C(F)(F)F.O=C(O)C(F)(F)F.O=C(O)C(F)(F)F.O=C(O)C(F)(F)F (centres unmarked) [Compound 9, 1,3,2′,6′,2′″,6′″-Hexaammonium-guanidinyl-5″-deoxy-5″-N-(dodecanoyl)-neomycin hexakis(trifluoroacetate)] | 4 | 2 | 32 | 32 | 16 | 32 | 16 | 8 | 64 | 2 | – | 16 | 32 | 2 | –
CC(C)c1cc(C(C)C)c(S(=O)(=O)OCC2OC(OC3C(NC(=O)OC(C)(C)C)CC(NC(=O)OC(C)(C)C)C(OC4OC(CNC(=O)OC(C)(C)C)C(O)C(O)C4O)C3O)C(O)C(NC(=O)OC(C)(C)C)C2O)c(C(C)C)c1 (centres unmarked) [Compound 17, 6″-(2,4,6-Triisopropylbenzenesulfonyl)-1,3,6′,3″-tetra-N-(tert-butoxycarbonyl)kanamycin A] | – | – | – | – | – | – | – | – | – | – | – | – | – | – | reduced hemolytic activity
NC[C@H]1O[C@H](O[C@H]2[C@H](O)[C@@H](O[C@H]3O[C@H](CO)[C@@H](O)[C@H](N)[C@H]3O)[C@H](N)C[C@@H]2N)[C@H](O)[C@@H](O)[C@@H]1O [Kanamycin A, reference compound] | 4 (≈ 8.26 µM) | 128 (≈ 264 µM) | >512 | 16 (≈ 33 µM) | 8 (≈ 16.5 µM) | >512 | 32 (≈ 66 µM) | >512 | 8 (≈ 16.5 µM) | 2 (≈ 4.13 µM) | – | – | – | <0.4 | –
